Counter-ions that a name gives are not always drawn.

As a reminder, the IC50 is the midpoint of a concentration-inhibition curve.

One assay deals with T1, 2,3-epoxysqualene-lanosterol cyclase (Candida albicans, UniProt Q04782).
T1 construct: there was obtained a cell-free extract (CFE) as the supernatant; endogenous in cells; host or cells: Candida albicans culture, protoplasts ruptured, cell-free extract (10000 g supernatant)
T1 sequence (Q04782 whole entry): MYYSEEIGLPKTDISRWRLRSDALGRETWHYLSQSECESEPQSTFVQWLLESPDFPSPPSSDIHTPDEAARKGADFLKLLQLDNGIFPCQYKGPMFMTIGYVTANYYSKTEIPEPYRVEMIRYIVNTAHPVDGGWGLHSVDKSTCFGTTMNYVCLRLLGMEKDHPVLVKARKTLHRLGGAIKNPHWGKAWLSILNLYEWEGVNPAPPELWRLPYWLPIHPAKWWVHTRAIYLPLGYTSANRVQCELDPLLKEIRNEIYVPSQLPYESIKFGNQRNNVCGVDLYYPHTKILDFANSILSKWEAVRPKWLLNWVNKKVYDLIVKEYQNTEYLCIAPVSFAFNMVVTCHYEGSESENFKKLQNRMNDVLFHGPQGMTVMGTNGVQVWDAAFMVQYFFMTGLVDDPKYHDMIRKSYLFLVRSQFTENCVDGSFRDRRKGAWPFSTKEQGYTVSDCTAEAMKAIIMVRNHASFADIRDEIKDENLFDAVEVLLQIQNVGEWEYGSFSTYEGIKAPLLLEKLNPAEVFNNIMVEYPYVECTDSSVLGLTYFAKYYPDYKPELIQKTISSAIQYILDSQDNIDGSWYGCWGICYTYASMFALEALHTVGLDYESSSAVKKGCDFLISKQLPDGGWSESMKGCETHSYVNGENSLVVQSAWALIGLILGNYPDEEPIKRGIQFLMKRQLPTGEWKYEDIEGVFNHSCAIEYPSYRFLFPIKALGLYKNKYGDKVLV
Put plainly: inhibition of 2,3-epoxysqualene-lanosterol cyclase from Candida albicans (cell-free extract, 14C-squalene epoxide).
Details: not given
The format is biochemical.
In turn, `C=CCN(C)Cc1ccc(-c2ccc(C(=O)c3ccc(F)cc3)cc2)cc1` [Compound 15, 4'-[(Allylmethylamino)methyl]-4-biphenylyl p-fluorophenyl ketone hydrochloride] showed an IC50 of 100 nM.
Still for that read-out and setting: under `C=CCN(C)Cc1ccc(-c2ccc(C(=O)c3ccc(C#N)cc3)cc2)cc1` [Compound 19, p-[[4'-[(Allylmethylamino)methyl]-4-biphenylyl]carbonyl]-benzonitrile hydrochloride] stands 109 nM; under `C=CCN(C)Cc1ccc(-c2ccc(C(=O)CCC=C(C)C)cc2)cc1` [Compound 39, 4'-[(allylmethylamino)methyl]-4-biphenylyl 4-methyl-3-pentenyl ketone], 25.9 nM; under `C=CCN(C)Cc1ccc(-c2ccc(C(=O)CCCCCCCCO)cc2)cc1` [Compound 40, 4'-[(allylmethylamino)methyl]-4-biphenylyl 8-hydroxyoctyl ketone fumarate], 17.8 nM.
The compound `C=CCN(C)Cc1ccc(-c2ccc(C(=O)c3ccc4ccccc4c3)cc2)cc1` [Compound 23, 4'-[(Allylmethylamino)methyl]-4-biphenylyl 2-naphthyl ketone hydrochloride] gave an IC50 of 409 nM.
Same read-out and setting: under `C=CCN(C)Cc1ccc(-c2ccc(C(=O)c3cccc4ccccc34)cc2)cc1` [Compound 22, 4'-[(Allylmethylamino)methyl]-4-biphenylyl 1-naphthyl ketone hydrochloride] stands 434 nM.

The same assay, now with this note: cell-free extract, pH 6.9, 30° C., 1 hour.
As for `Cc1ccccc1C(=O)c1ccc(-c2ccc(CN(C)C)cc2)cc1` [Compound 32], the concentration for half-maximal inhibition (IC50) was 0/03.

The same assay, now with this note: cell-free extract, pH 6.9, 30° C., 1 hour; read-out: IC50 (converted).
In the case of `CN(C)Cc1ccc(-c2ccc(C(=O)c3ccc(I)cc3)cc2)cc1` [Compound 10, 4'-[(Dimethylamino)methyl]-4-biphenylyl p-iodophenyl ketone hydrochloride], the IC50 was 98.4 nM.
As to `C=CCN(C)Cc1ccc(-c2ccc(C(=O)c3ccccc3C)cc2)cc1` [Compound 34], the half-maximal inhibitory concentration (IC50) was 50.6 nM.
Take `CC(c1ccc(-c2ccc(C(=O)c3ccccc3)cc2)cc1)N(C)C` (racemic) [Compound 2, rac-4'-[1-(dimethylamino)ethyl]-4-biphenylyl phenyl ketone hydrochloride]: the IC50 was 219 nM.
On the same count and under the same terms, under `CN(C)C(C)(C)c1ccc(-c2ccc(C(=O)c3ccccc3)cc2)cc1` [Compound 9, 4'-[1-(dimethylamino)-1-methylethyl]-4-biphenylyl phenyl ketone hydrochloride] stands 2500 nM.
On the same count and under the same terms, under `C=CCN(C)Cc1ccc(-c2ccc(C(=O)c3ccccc3C)cc2)cc1` [Compound 33] stands 33.8 nM.
Consider `CN(C)Cc1ccc(-c2ccc(C(=O)c3ccc(C#N)cc3)cc2)cc1` [Compound 11, p-[[(4'-[(Dimethylamino)methyl]-4-biphenylyl]carbonyl]-benzonitrile hydrochloride], for which the 50% inhibitory concentration (IC50) is 170 nM.
For the compound `CN(C)Cc1ccc(-c2ccc(C(=O)c3cccc4ccccc34)cc2)cc1` [Compound 12, 4'-[(Dimethylamino)methyl]-4-biphenylyl 1-naphthyl ketone hydrochloride], the concentration for half-maximal inhibition (IC50) was 771 nM.
Consider `CN(C)Cc1ccc(-c2ccc(C(=O)c3ccc(Cl)cc3Cl)cc2Cl)cc1` [Compound 7], for which the IC50 was 239 nM.
On the same count and under the same terms, under `CCN(C)Cc1ccc(-c2ccc(C(=O)c3ccccc3)cc2)cc1` [Compound 25, 4'-[Ethylmethylamino)methyl]-4-biphenylyl phenyl ketone hydrochloride] stands 137 nM; under `C=CCN(C)Cc1ccc(-c2ccc(C(=O)c3ccc(Br)cc3Br)cc2)cc1` [Compound 28], 40.1 nM.
Still for that read-out and setting: then `CN(C)Cc1ccc(-c2ccc(C(=O)CCCCCCCCO)cc2)cc1` [Compound 37, 4'-[(dimethylamino)methyl]-4-biphenylyl 8-hydroxyoctyl ketone hydrochloride], with 42.1 nM.
`CCCCCC(=O)c1ccc(-c2ccc(CN(C)C)cc2)cc1` [Compound 35, 4'-[(dimethylamino)-methyl]-4-biphenylyl pentyl ketone hydrochloride]: the IC50 was 89.6 nM.

(Values after patent US5239084A, “Substituted aminoalkyl biphenyl compounds” (Hoffmann-La Roche Inc., priority 1990, dated 1993).)
